Test results as given in patent publication EP1438307B1, “DERIVATIVES OF 4-(THIO- OR SELENOXANTHENE-9-YLIDENE)-PIPERIDINE OR ACRIDINE AND ITS USE AS A SELECTIVE 5-HT2B RECEPTOR ANTAGONIST” (Biofrontera Pharmaceuticals GmbH, priority 2001, dated 2003).

What was measured:
5-HT2A receptor = target: T1, 5-HT2A receptor (Homo sapiens, UniProt P28223); assay: 5-HT2A receptor binding, [3H]ketanserin competition (counter screen); details: read-out: Receptor Affinity: pK Values 5-HT2A receptor (converted)
T1 construct: expressed in transfected cells; host or cells: HEK293
Method: 5-HT2A receptors were labelled with [^3H]ketanserin in human cortex, in HEK293 cells expressing a cloned human 5-HT2A receptor and in HEK293 cells expressing the rat 5-HT2A receptor. For competition binding studies the ligand concentration was approximately 0.1 nM. For saturation binding studies concentrations of radioligand ranged from 0.01 nM to 2.0 nM. Assays were conducted in 0.5 ml of assay buffer (50 mM Tris-HCl, 4 mM calcium chloride, 0.1 % by weight ascorbic acid) (pH 7.4 at 4°C). Non-specifc binding was defined with […] unlabelled ketanserin. After a 60 min incubation at 32°C, membranes were harvested onto filters treated with 0.1 % by weight of polyethylenimine and the bound radioactivity was determined. Competition radioligand binding data was analyzed using a four parameter logistic equation and iterative curve-fitting techniques to obtain estimates of the IC50 and Hill slope. Kd values, determined from saturation binding studies were then used to calculate inhibition dissociation constants (Ki).

human 5-HT2B receptor = target: T2, human 5-HT2B receptor (Homo sapiens, UniProt P41595); assay: Cloned human 5-HT2B receptor binding assay, [3H]-5HT; details: HEK 293 cells transfected with human 5-HT2B receptor, read-out: Receptor Affinity: pK Values 5HT2B receptor (converted)
T2 construct: expressed in transfected cells; host or cells: HEK 293 (transient)
Method: The following describes an in vitro binding assay utilizing cloned 5-HT2B receptors radiolabelled with [^3H]-5HT. HEK 293 cells transiently transfected with an expression plasmid pXMD1-hu2B encoding the human 5-HT2B receptor (see Schmuck et al., FEBS Lett., 1994, 342, 85-90) were used as described previously (Schmuck et al., Eur. J. Pharmacol., 1996, 8, 959-967). Two days after transfection cells were harvested, pelleted at 500g for 5 min at 4°C, gently resuspended in ice-cold buffer1 (50 mM TRIS pH 7.7, 4 mM CaCl2) and homogenized using a Polytron PT 1200 tissue homogenizer (position 6 for 30 s). Cells were pelleted at 50,000g, 4°C for 10 min, washed with buffer1 and pelleted again. The final pellet was resuspended in incubation buffer (50 mM TRIS pH 7.7, 4 mM CaCl2, 10 µM pargyline and 0.1 % by weight ascorbic acid). The binding assay consisted of 300 µl of membrane suspension (protein concentration = 0.3 to 0.5 mg/ml), 150 µl of competing drug and 50 µl of [^3H]5-HT at a final concentration of 4 to 5 nM. The mixture was incubated at 37°C for 30 min and the assay terminated by rapid filtration and two washing steps with 5 ml of cold 20 mM Tris-HCl pH = 7.5, and 154 mM NaCl over Whatman GFB filters. Filters were counted by liquid scintillation. Non-specific binding was determined in the presence of an excess of 5-HT (100 µM). Bound radioligand represented less than 1 % of free radioligand. In competition experiments, specific binding represented about 60 % of total binding. Results expressed as pKi values are shown in Table 1 Human 5-HT2B receptors were labelled in HEK293 cells as described above, except that the radioligand was [^3H]-5HT and that the assay buffer contained pargyline in a concentration of […] and 0.1 % by weight of ascorbic acid. For competition binding studies the radioligand concentration was approximately 0.4 nM while for saturation binding studies the concentration of [^3H]-5HT ranged from 0.05 to 8 nM. Non-specific binding was defined with […]. Incubations were for 120 min at 4°C. Competition radioligand binding data was analyzed using a four parameter logistic equation and iterative curve-fitting techniques to obtain estimates of the IC50 and Hill slope. Kd values, determined from saturation binding studies were then used to calculate inhibition dissociation constants (Ki).

5-HT2C receptor = target: T3, 5-HT2C receptor (Homo sapiens, UniProt P28335); assay: 5-HT2C receptor binding, [3H]mesulergine competition (counter screen); details: read-out: Receptor Affinity: pK Values 5NT2C receptor (converted)
T3 construct: expressed in transfected cells; host or cells: Cos-7
T3 sequence (P28335 33-458): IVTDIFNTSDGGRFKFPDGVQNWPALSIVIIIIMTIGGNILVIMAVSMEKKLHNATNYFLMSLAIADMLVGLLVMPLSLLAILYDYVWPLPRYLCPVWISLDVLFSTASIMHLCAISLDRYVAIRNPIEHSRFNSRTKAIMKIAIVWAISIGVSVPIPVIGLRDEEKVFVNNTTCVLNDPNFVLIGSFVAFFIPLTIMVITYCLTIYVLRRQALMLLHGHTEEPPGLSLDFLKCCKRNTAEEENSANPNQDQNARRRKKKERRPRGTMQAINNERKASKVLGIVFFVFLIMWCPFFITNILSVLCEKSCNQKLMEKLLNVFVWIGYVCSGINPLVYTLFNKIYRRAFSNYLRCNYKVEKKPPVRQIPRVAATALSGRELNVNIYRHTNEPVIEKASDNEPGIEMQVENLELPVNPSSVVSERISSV
Method: 5-HT2C receptors were labelled in choroid plexus, Cos-7 cells expressing the human 5-HT2C receptor and in NIH-3T3 expressing the […]. Assays were conducted as described for the 5-HT2A receptor except that the radioligand was [^3H]mesulergine. The radioligand concentration for competition studies was approximately 0.2 nM while for saturation binding studies the concentration ranged from 0.1 to 18 nM. Non-specific binding was defined with 10 µM unlabelled mesulergine. Competition radioligand binding data was analyzed using a four parameter logistic equation and iterative curve-fitting techniques to obtain estimates of the IC50 and Hill slope. Kd values, determined from saturation binding studies were then used to calculate inhibition dissociation constants (Ki).

human H1 receptor = target: T4, human H1 receptor (Homo sapiens, UniProt P35367); assay: Cloned human H1 receptor binding assay, [3H]-mepyramine; details: COS-7 cells transfected with human H1 receptor, read-out: Receptor Affinity: pK Values H1 receptor (converted)
T4 construct: expressed in transfected cells; host or cells: COS-7 (transient)
Method: COS-7 cells were transiently transfected with an expression plasmid pCineohH1, pCineohH2, pCineohH3 and pCineohH4 encoding the human Histamine H1, H2. H3 or H4 receptor, respectively. Transfected cells were harvested after 48 h, homogenized in ice-cold 50 mM Na2/potassium phosphate buffer (pH 7.4) and used for radioligand binding studies. Cell homogenates (40 - 50 µg of protein) were incubated for 30 min at 25°C in 50 mM Na2/potassium phosphate buffer (pH 7.4) in 400 µl with the various concentrations of either [^3H]-mepyramine, [^3H]-thiotidine, [^3H]-R-α-Methylhistamine, and [^3H]-pyramilamine for cells expressing recombinant human H1, H2. H3 and H4 receptors, respectively. The nonspecific binding was defined in the presence of 1 µM mianserin. In displacement studies, cell homogenated were incubated either with 1 nM [^3H]-mepyramine, 15 nM [^3H]-thiotidine, 0.5 nM [^3H]-R-α-Methylhistamine, or 15 nM [^3H]-pyramilamine and increasing concentrations of competing ligands. The incubations were stopped by rapid dilution with 3 ml of ice-cold 50 mM Na2/potassium phosphate buffer (pH 7.4). The bound radioactivity was seperated by filatration through Whatman GF/C filters that had been treated with 0.3 % polyethyleneimine. Filters were washed twice in 3 ml of buffer and radioactivity retained on the filters was measured by liquid scinitllation counting. The concentration of 1-methyl-4-(3-ethoxy-9H-thioxanthene-9-ylidene)-piperidine producing 50% inhibition of binding (IC50) was determined using iterative curve fitting techniques.

T1 sequence (P28223 whole entry): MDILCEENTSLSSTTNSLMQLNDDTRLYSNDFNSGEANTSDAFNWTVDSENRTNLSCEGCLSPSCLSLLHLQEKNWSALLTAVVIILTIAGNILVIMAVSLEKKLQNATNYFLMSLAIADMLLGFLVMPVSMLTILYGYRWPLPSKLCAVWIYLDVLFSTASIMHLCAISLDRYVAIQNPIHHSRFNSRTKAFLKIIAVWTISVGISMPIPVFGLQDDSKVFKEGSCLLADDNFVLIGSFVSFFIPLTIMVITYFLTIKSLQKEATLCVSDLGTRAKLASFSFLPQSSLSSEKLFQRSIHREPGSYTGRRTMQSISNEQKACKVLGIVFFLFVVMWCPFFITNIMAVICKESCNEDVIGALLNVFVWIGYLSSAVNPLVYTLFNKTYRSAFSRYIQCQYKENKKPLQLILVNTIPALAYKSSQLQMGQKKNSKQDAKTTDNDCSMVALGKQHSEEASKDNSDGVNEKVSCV
T2 sequence (P41595 whole entry): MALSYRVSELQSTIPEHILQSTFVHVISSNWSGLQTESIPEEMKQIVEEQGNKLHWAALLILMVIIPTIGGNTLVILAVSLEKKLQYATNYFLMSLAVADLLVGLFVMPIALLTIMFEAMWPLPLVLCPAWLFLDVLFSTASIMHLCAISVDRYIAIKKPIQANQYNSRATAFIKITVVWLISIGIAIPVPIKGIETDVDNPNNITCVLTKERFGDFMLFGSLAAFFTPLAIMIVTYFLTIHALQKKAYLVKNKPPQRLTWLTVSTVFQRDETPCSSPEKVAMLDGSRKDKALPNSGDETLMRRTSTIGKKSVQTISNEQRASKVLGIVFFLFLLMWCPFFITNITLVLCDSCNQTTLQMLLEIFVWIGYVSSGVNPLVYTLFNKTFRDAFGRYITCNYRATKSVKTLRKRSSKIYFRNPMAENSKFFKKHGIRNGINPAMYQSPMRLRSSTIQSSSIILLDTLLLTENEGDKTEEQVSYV
T4 sequence (P35367 whole entry): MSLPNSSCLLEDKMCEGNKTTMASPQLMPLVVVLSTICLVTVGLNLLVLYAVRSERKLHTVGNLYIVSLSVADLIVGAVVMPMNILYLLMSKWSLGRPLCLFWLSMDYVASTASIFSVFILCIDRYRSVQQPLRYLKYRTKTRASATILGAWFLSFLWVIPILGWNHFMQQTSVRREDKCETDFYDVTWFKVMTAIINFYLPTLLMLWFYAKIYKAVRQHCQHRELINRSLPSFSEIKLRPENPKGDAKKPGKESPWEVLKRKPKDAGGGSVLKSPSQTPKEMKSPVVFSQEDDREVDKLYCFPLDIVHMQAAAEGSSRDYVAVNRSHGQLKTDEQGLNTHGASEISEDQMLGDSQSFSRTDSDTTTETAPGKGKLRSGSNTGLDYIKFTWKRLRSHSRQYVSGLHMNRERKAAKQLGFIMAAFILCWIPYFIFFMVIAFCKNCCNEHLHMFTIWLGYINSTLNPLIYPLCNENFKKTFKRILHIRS

Row | SMILES | Ki (5-HT2A receptor) [nM] | Ki (human 5-HT2B receptor) [nM] | Ki (5-HT2C receptor) [nM] | Ki (human H1 receptor) [nM]
1 | CCOc1ccc2c(c1)Nc1ccccc1C2=C1CCN(C)CC1 [3-Ethoxy-9-(1-methyl-piperidine-4-ylidene)-9,10-dihydro-acridine] | 1.17 | 0.741 | 37.2 | 29.5
2 | CCOc1ccc2c(c1)Sc1cccc(O)c1C2=C1CCN(C)CC1 [4-(6-Ethoxy-1-hydroxy-thioxanthen-9-yliden)-1-methyl-piperidine] | 1.51 | 0.0115 | 13.8 | 36.3
3 | CCOc1ccc2c(c1)Sc1cccc(OC)c1C2=C1CCN(C)CC1 [4-(6-Ethoxy-1-methoxy-thioxanthen-9-yliden)-1-methyl-piperidine] | 1.02 | 0.0447 | 17 | 3.72
4 | CC(C)c1ccc2c(c1)Sc1cccc(O)c1C2=C1CCN(C)CC1 [4-(6-Isopropyl-1-hydroxy-thioxanthen-9-yliden)-1-methyl-piperidine] | 0.776 | 0.12 | 30.2 | 35.5
5 | COc1cccc2c1C(=C1CCN(C)CC1)c1ccc(C(C)C)cc1S2 [4-(6-Isopropyl-1-methoxy-thioxanthen-9-yliden)-1-methyl-piperidine] | 0.741 | 0.17 | 16.2 | 10.5
6 | COc1ccc2c(c1)Sc1cccc(OC)c1C2=C1CCN(C)CC1 [4-(6-Methoxy-1-methoxy-thioxanthen-9-yliden)-1-methyl-piperidine] | 0.0427 | 0.00871 | 1.55 | 0.129
